According to patent US20150315179A1, “COMPOUNDS AND METHODS OF TREATING NEUROLOGICAL DISORDERS” (Torrey Pines Institute For Molecular Studies, priority 2014, published 2015):

Test system: TrkA
Experiment: Mouse brain lysate immunoblot, TrkA
Format: in vivo
Conditions: i.p. 100 mg/kg for 5 days, brain lysates
Description: FIGS. 9.2A and B illustrate that THPI-244 increases TrkA and sAPPα in the mouse brain. FIG. 9.2A illustrates that THPI-244 was administered to mice by i.p. injections at 100 mg/kg body weight for 5 days and the brain lysates were subjected to immunoblots. Specific antibodies were used to detect TrkA and sAPPα. […] Data are mean±SEM, n=3*, p<0.05, ***, p<0.001.

O=C(Cc1ccccc1)N[C@H](CNc1nc(CN2CCN(C(=O)Cc3ccccc3)CC2)cs1)c1ccccc1 [THPI-244]
increase of TrkA: 78%
